Numbers after ± are expanded uncertainties.
Columns and labels:
[1] = xn = mol fraction of the nth substance listed; settings: 100 kPa, Liquid; for viscosity: Falling or rolling sphere viscometry; for speed of sound: Frequency=3 MHz, Single path-length method; for mass density: Vibrating tube method
[2] = refractive index (Na D-line) (dimensionless); xn = mol fraction of the nth substance listed; settings: 100 kPa, Liquid, Standard Abbe refractometry

Structure (SMILES): CCC(C)c1ccccc1 (configuration not stated) [(1-methylpropyl)benzene] + CCCCCCCCCCCCCCCC
- viscosity ([1]; 298.15 K, x2 = 0): 0.912 ± 0.021 mPa·s
- viscosity ([1]; 298.15 K, x2 = 0.0702): 1.004 ± 0.028 mPa·s
- viscosity ([1]; 298.15 K, x2 = 0.1382): 1.112 ± 0.033 mPa·s
- viscosity ([1]; 298.15 K, x2 = 0.2541): 1.33 ± 0.037 mPa·s
- viscosity ([1]; 298.15 K, x2 = 0.3113): 1.449 ± 0.04 mPa·s
- viscosity ([1]; 298.15 K, x2 = 0.4028): 1.644 ± 0.044 mPa·s
- viscosity ([1]; 298.15 K, x2 = 0.4757): 1.793 ± 0.046 mPa·s
- viscosity ([1]; 298.15 K, x2 = 0.5349): 1.924 ± 0.049 mPa·s
- viscosity ([1]; 298.15 K, x2 = 0.6167): 2.101 ± 0.053 mPa·s
- viscosity ([1]; 298.15 K, x2 = 0.7476): 2.387 ± 0.058 mPa·s
- viscosity ([1]; 298.15 K, x2 = 0.832): 2.587 ± 0.062 mPa·s
- speed of sound ([1]; 298.15 K, x2 = 0): 1313.8 ± 1 m/s
- speed of sound ([1]; 298.15 K, x2 = 0.0702): 1312 ± 1 m/s
- speed of sound ([1]; 298.15 K, x2 = 0.1382): 1311.4 ± 1 m/s
- speed of sound ([1]; 298.15 K, x2 = 0.2541): 1312.4 ± 1 m/s
- speed of sound ([1]; 298.15 K, x2 = 0.3113): 1313.7 ± 1 m/s
- speed of sound ([1]; 298.15 K, x2 = 0.4028): 1316.1 ± 1 m/s
- speed of sound ([1]; 298.15 K, x2 = 0.4757): 1318.4 ± 1 m/s
- speed of sound ([1]; 298.15 K, x2 = 0.5349): 1320.7 ± 1 m/s
- speed of sound ([1]; 298.15 K, x2 = 0.6167): 1323.2 ± 1 m/s
- speed of sound ([1]; 298.15 K, x2 = 0.7476): 1328.3 ± 1 m/s
- speed of sound ([1]; 298.15 K, x2 = 0.832): 1331.6 ± 1 m/s
- mass density ([1]; 298.15 K, x2 = 0): 857.89 ± 0.42 kg/m3
- mass density ([1]; 298.15 K, x2 = 0.0702): 846.08 ± 1.6 kg/m3
- mass density ([1]; 298.15 K, x2 = 0.1382): 836.12 ± 1.4 kg/m3
- mass density ([1]; 298.15 K, x2 = 0.2541): 821.7 ± 1.3 kg/m3
- mass density ([1]; 298.15 K, x2 = 0.3113): 815.5 ± 1.1 kg/m3
- mass density ([1]; 298.15 K, x2 = 0.4028): 806.76 ± 1 kg/m3
- mass density ([1]; 298.15 K, x2 = 0.4757): 800.6 ± 0.92 kg/m3
- mass density ([1]; 298.15 K, x2 = 0.5349): 796.04 ± 0.84 kg/m3
- mass density ([1]; 298.15 K, x2 = 0.6167): 790.37 ± 0.77 kg/m3
- mass density ([1]; 298.15 K, x2 = 0.7476): 782.25 ± 0.73 kg/m3
- mass density ([1]; 298.15 K, x2 = 0.832): 777.71 ± 0.65 kg/m3
- viscosity ([1]; 308.15 K, x2 = 0): 0.796 ± 0.021 mPa·s
- viscosity ([1]; 308.15 K, x2 = 0.0702): 0.874 ± 0.027 mPa·s
- viscosity ([1]; 308.15 K, x2 = 0.1382): 0.954 ± 0.03 mPa·s
- viscosity ([1]; 308.15 K, x2 = 0.2541): 1.128 ± 0.035 mPa·s
- viscosity ([1]; 308.15 K, x2 = 0.3113): 1.223 ± 0.037 mPa·s
- viscosity ([1]; 308.15 K, x2 = 0.4028): 1.375 ± 0.041 mPa·s
- viscosity ([1]; 308.15 K, x2 = 0.4757): 1.493 ± 0.044 mPa·s
- viscosity ([1]; 308.15 K, x2 = 0.5349): 1.592 ± 0.046 mPa·s
- viscosity ([1]; 308.15 K, x2 = 0.6167): 1.734 ± 0.05 mPa·s
- viscosity ([1]; 308.15 K, x2 = 0.7476): 1.95 ± 0.055 mPa·s
- viscosity ([1]; 308.15 K, x2 = 0.832): 2.099 ± 0.059 mPa·s
- speed of sound ([1]; 308.15 K, x2 = 0): 1274.5 ± 1 m/s
- speed of sound ([1]; 308.15 K, x2 = 0.0702): 1273.2 ± 1 m/s
- speed of sound ([1]; 308.15 K, x2 = 0.1382): 1273.1 ± 1 m/s
- speed of sound ([1]; 308.15 K, x2 = 0.2541): 1274.7 ± 1 m/s
- speed of sound ([1]; 308.15 K, x2 = 0.3113): 1276.1 ± 1 m/s
- speed of sound ([1]; 308.15 K, x2 = 0.4028): 1278.8 ± 1 m/s
- speed of sound ([1]; 308.15 K, x2 = 0.4757): 1281.2 ± 1 m/s
- speed of sound ([1]; 308.15 K, x2 = 0.5349): 1283.5 ± 1 m/s
- speed of sound ([1]; 308.15 K, x2 = 0.6167): 1286.2 ± 1 m/s
- speed of sound ([1]; 308.15 K, x2 = 0.7476): 1291.7 ± 1 m/s
- speed of sound ([1]; 308.15 K, x2 = 0.832): 1294.6 ± 1 m/s
- mass density ([1]; 308.15 K, x2 = 0): 849.78 ± 0.42 kg/m3
- mass density ([1]; 308.15 K, x2 = 0.0702): 838.16 ± 1.6 kg/m3
- mass density ([1]; 308.15 K, x2 = 0.1382): 828.35 ± 1.4 kg/m3
- mass density ([1]; 308.15 K, x2 = 0.2541): 814.15 ± 1.3 kg/m3
- mass density ([1]; 308.15 K, x2 = 0.3113): 808.04 ± 1.1 kg/m3
- mass density ([1]; 308.15 K, x2 = 0.4028): 799.42 ± 0.99 kg/m3
- mass density ([1]; 308.15 K, x2 = 0.4757): 793.34 ± 0.91 kg/m3
- mass density ([1]; 308.15 K, x2 = 0.5349): 788.84 ± 0.83 kg/m3
- mass density ([1]; 308.15 K, x2 = 0.6167): 783.24 ± 0.76 kg/m3
- mass density ([1]; 308.15 K, x2 = 0.7476): 775.3 ± 0.72 kg/m3
- mass density ([1]; 308.15 K, x2 = 0.832): 770.73 ± 0.64 kg/m3
- viscosity ([1]; 318.15 K, x2 = 0): 0.707 ± 0.021 mPa·s
- viscosity ([1]; 318.15 K, x2 = 0.0702): 0.771 ± 0.026 mPa·s
- viscosity ([1]; 318.15 K, x2 = 0.1382): 0.838 ± 0.029 mPa·s
- viscosity ([1]; 318.15 K, x2 = 0.2541): 0.975 ± 0.033 mPa·s
- viscosity ([1]; 318.15 K, x2 = 0.3113): 1.05 ± 0.036 mPa·s
- viscosity ([1]; 318.15 K, x2 = 0.4028): 1.174 ± 0.04 mPa·s
- viscosity ([1]; 318.15 K, x2 = 0.4757): 1.275 ± 0.043 mPa·s
- viscosity ([1]; 318.15 K, x2 = 0.5349): 1.356 ± 0.044 mPa·s
- viscosity ([1]; 318.15 K, x2 = 0.6167): 1.468 ± 0.048 mPa·s
- viscosity ([1]; 318.15 K, x2 = 0.7476): 1.642 ± 0.053 mPa·s
- viscosity ([1]; 318.15 K, x2 = 0.832): 1.762 ± 0.057 mPa·s
- speed of sound ([1]; 318.15 K, x2 = 0): 1235.7 ± 1 m/s
- speed of sound ([1]; 318.15 K, x2 = 0.0702): 1235 ± 1 m/s
- speed of sound ([1]; 318.15 K, x2 = 0.1382): 1235.3 ± 1 m/s
- speed of sound ([1]; 318.15 K, x2 = 0.2541): 1237.4 ± 1 m/s
- speed of sound ([1]; 318.15 K, x2 = 0.3113): 1239 ± 1 m/s
- speed of sound ([1]; 318.15 K, x2 = 0.4028): 1241.9 ± 1 m/s
- speed of sound ([1]; 318.15 K, x2 = 0.4757): 1244.5 ± 1 m/s
- speed of sound ([1]; 318.15 K, x2 = 0.5349): 1246.8 ± 1 m/s
- speed of sound ([1]; 318.15 K, x2 = 0.6167): 1249.7 ± 1 m/s
- speed of sound ([1]; 318.15 K, x2 = 0.7476): 1254.5 ± 1 m/s
- speed of sound ([1]; 318.15 K, x2 = 0.832): 1258.2 ± 1 m/s
- mass density ([1]; 318.15 K, x2 = 0): 841.64 ± 0.42 kg/m3
- mass density ([1]; 318.15 K, x2 = 0.0702): 830.21 ± 1.6 kg/m3
- mass density ([1]; 318.15 K, x2 = 0.1382): 820.55 ± 1.3 kg/m3
- mass density ([1]; 318.15 K, x2 = 0.2541): 806.57 ± 1.2 kg/m3
- mass density ([1]; 318.15 K, x2 = 0.3113): 800.55 ± 1.1 kg/m3
- mass density ([1]; 318.15 K, x2 = 0.4028): 792.05 ± 0.98 kg/m3
- mass density ([1]; 318.15 K, x2 = 0.4757): 786.06 ± 0.89 kg/m3
- mass density ([1]; 318.15 K, x2 = 0.5349): 781.7 ± 0.82 kg/m3
- mass density ([1]; 318.15 K, x2 = 0.6167): 776.09 ± 0.76 kg/m3
- mass density ([1]; 318.15 K, x2 = 0.7476): 768.18 ± 0.71 kg/m3
- mass density ([1]; 318.15 K, x2 = 0.832): 763.74 ± 0.64 kg/m3
- refractive index ([2]; 298.15 K, x2 = 0): 1.4876 ± 0.0004
- refractive index ([2]; 298.15 K, x2 = 0.0702): 1.4801 ± 0.0011
- refractive index ([2]; 298.15 K, x2 = 0.1382): 1.4738 ± 0.0009
- refractive index ([2]; 298.15 K, x2 = 0.2541): 1.4647 ± 0.0009
- refractive index ([2]; 298.15 K, x2 = 0.3113): 1.4608 ± 0.0008
- refractive index ([2]; 298.15 K, x2 = 0.4028): 1.4553 ± 0.0007
- refractive index ([2]; 298.15 K, x2 = 0.4757): 1.4515 ± 0.0007
- refractive index ([2]; 298.15 K, x2 = 0.5349): 1.4486 ± 0.0006
- refractive index ([2]; 298.15 K, x2 = 0.6167): 1.4451 ± 0.0006
- refractive index ([2]; 298.15 K, x2 = 0.7476): 1.4401 ± 0.0006
- refractive index ([2]; 298.15 K, x2 = 0.832): 1.4373 ± 0.0005
- refractive index ([2]; 308.15 K, x2 = 0): 1.4827 ± 0.0004
- refractive index ([2]; 308.15 K, x2 = 0.0702): 1.4753 ± 0.0011
- refractive index ([2]; 308.15 K, x2 = 0.1382): 1.469 ± 0.0009
- refractive index ([2]; 308.15 K, x2 = 0.2541): 1.46 ± 0.0009
- refractive index ([2]; 308.15 K, x2 = 0.3113): 1.4562 ± 0.0007
- refractive index ([2]; 308.15 K, x2 = 0.4028): 1.4508 ± 0.0007
- refractive index ([2]; 308.15 K, x2 = 0.4757): 1.447 ± 0.0007
- refractive index ([2]; 308.15 K, x2 = 0.5349): 1.4441 ± 0.0006
- refractive index ([2]; 308.15 K, x2 = 0.6167): 1.4407 ± 0.0006
- refractive index ([2]; 308.15 K, x2 = 0.7476): 1.4358 ± 0.0006
- refractive index ([2]; 308.15 K, x2 = 0.832): 1.433 ± 0.0005
- refractive index ([2]; 318.15 K, x2 = 0): 1.4778 ± 0.0004
- refractive index ([2]; 318.15 K, x2 = 0.0702): 1.4704 ± 0.0011
- refractive index ([2]; 318.15 K, x2 = 0.1382): 1.4642 ± 0.0009
- refractive index ([2]; 318.15 K, x2 = 0.2541): 1.4553 ± 0.0008
- refractive index ([2]; 318.15 K, x2 = 0.3113): 1.4516 ± 0.0007
- refractive index ([2]; 318.15 K, x2 = 0.4028): 1.4462 ± 0.0007
- refractive index ([2]; 318.15 K, x2 = 0.4757): 1.4425 ± 0.0006
- refractive index ([2]; 318.15 K, x2 = 0.5349): 1.4398 ± 0.0006
- refractive index ([2]; 318.15 K, x2 = 0.6167): 1.4364 ± 0.0006
- refractive index ([2]; 318.15 K, x2 = 0.7476): 1.4315 ± 0.0006
- refractive index ([2]; 318.15 K, x2 = 0.832): 1.4288 ± 0.0005

From the NIST ThermoML archive (doi:10.1016/j.jct.2018.08.036)
